Here are results for 35 compounds from patent US20060148858A1, “1, 2-Azole derivatives with hypoglycemic and hypolipidemic activity” (priority 2002, published 2006).

Usually melting point stands for the temperature, or range, at which the solid turns liquid. On to `O=C(O)Cc1ccc(OCCCc2cc(-c3ccc(C(F)(F)F)cc3)no2)cc1` [Example 1, [4-(3-{3-[4-(trifluoromethyl)phenyl]-5-isoxazolyl}propoxy)phenyl]acetic acid], for which the melting point was 127 to 128 °C.

The compound `O=C(O)c1ccc(OCCCc2cc(-c3ccc(C(F)(F)F)cc3)no2)cc1` [Example 2, 4-(3-{3-[4-(trifluoromethyl)phenyl]-5-isoxazolyl}propoxy)benzoic acid] had a melting point of 221 to 222 °C.

Consider `O=C(O)Cc1cccc(OCCCc2cc(-c3ccc(C(F)(F)F)cc3)no2)c1` [Example 3, [3-(3-{3-[4-(trifluoromethyl)phenyl]-5-isoxazolyl}propoxy)phenyl]acetic acid], for which the melting point was in the range of 126 to 127 °C.

As to `O=C(O)c1cccc(OCCCc2cc(-c3ccc(C(F)(F)F)cc3)no2)c1` [Example 4, 3-(3-{3-[4-(trifluoromethyl)phenyl]-5-isoxazolyl}propoxy)benzoic acid], the melting point is 133 to 134 °C.

As to `O=C(O)CCc1ccc(OCCCc2cc(-c3ccc(C(F)(F)F)cc3)no2)cc1` [Example 5, 3-[4-(3-{3-[4-(trifluoromethyl)phenyl]-5-isoxazolyl}propoxy)phenyl]propionic acid], the melting point lay within 174 to 175 °C.

On to `O=C(O)c1ccccc1OCCCc1cc(-c2ccc(C(F)(F)F)cc2)no1` [Example 6, 2-(3-{3-[4-(trifluoromethyl)phenyl]-5-isoxazolyl}propoxy)benzoic acid], for which the melting point fell in the range of 132 to 133 °C.

`Cn1nc(OCCCc2cc(-c3ccc(C(F)(F)F)cc3)no2)cc1C(=O)O` [Example 7, 1-methyl-3-(3-{3-[4-(trifluoromethyl)phenyl]-5-isoxazolyl}propoxy)-1H-pyrazole-5-carboxylic acid]: the melting point was 162 to 163 °C.

The compound `O=C(O)c1cc(OCCCc2cc(-c3ccc(C(F)(F)F)cc3)no2)nn1-c1ccccc1` [Example 8, 1-phenyl-3-(3-{3-[4-(trifluoromethyl)phenyl]-5-isoxazolyl}propoxy)-1H-pyrazole-5-carboxylic acid] gave a melting point of 145 to 146 °C.

Take `Cc1nn(-c2ccc(C(F)(F)F)cn2)cc1COc1ccc(CCC(=O)O)cc1` [Example 9, 3-(4-{3-methyl-1-[5-(trifluoromethyl)-2-pyridyl]-1H-pyrazol-4-ylmethoxy}phenyl)propionic acid]: the melting point was in the range of 195 to 196 °C.

In the case of `Cc1nn(-c2ccc(C(F)(F)F)cn2)cc1COc1ccc(OCC(=O)O)cc1` [Example 10, (4-{3-methyl-1-[5-(trifluoromethyl)-2-pyridyl]-1H-pyrazol-4-ylmethoxy}phenoxy)acetic acid], the melting point fell in the range of 138 to 139 °C.

Compound `O=C(O)CCc1cc(OCCCCc2cc(-c3ccc(C(F)(F)F)cc3)no2)nn1-c1ccccc1` [Example 11, 3-[1-phenyl-3-(4-{3-[4-(trifluoromethyl)phenyl]-5-isoxazolyl}butoxy)-1H-pyrazol-5-yl]propionic acid] showed a melting point of 139 to 140 °C.

Consider `O=C(O)c1ccc(OCCCCc2cc(-c3ccc(C(F)(F)F)cc3)no2)cc1` [Example 12, 4-(4-{3-[4-(trifluoromethyl)phenyl]-5-isoxazolyl}butoxy)benzoic acid], for which the melting point lay within 170 to 171 °C.

As to `O=C(O)Cc1ccc(OCCCCc2cc(-c3ccc(C(F)(F)F)cc3)no2)cc1` [Example 13, [4-(4-{3-[4-(trifluoromethyl)phenyl]-5-isoxazolyl}butoxy)phenyl]acetic acid], the melting point fell in the range of 125 to 126 °C.

The compound `O=C(O)CCc1ccc(OCCCCc2cc(-c3ccc(C(F)(F)F)cc3)no2)cc1` [Example 14, 3-[4-(4-{3-[4-(trifluoromethyl)phenyl]-5-isoxazolyl}butoxy)phenyl]propionic acid] came in with a melting point of 130 to 131 °C.

With `CC(C)(Oc1ccc(OCCCCc2cc(-c3ccc(C(F)(F)F)cc3)no2)cc1)C(=O)O` [Example 15, 2-methyl-2-[4-(4-{3-[4-(trifluoromethyl)phenyl]-5-isoxazolyl}butoxy)phenoxy]propionic acid], the melting point was in the range of 103 to 104 °C.

For `O=C(O)Cc1cccc(OCCCCc2cc(-c3ccc(C(F)(F)F)cc3)no2)c1` [Example 16, [3-(4-{3-[4-(trifluoromethyl)phenyl]-5-isoxazolyl}butoxy)phenyl]acetic acid], the melting point lay in the range of 134 to 135 °C.

For the compound `O=C(O)Cc1ccccc1OCCCCc1cc(-c2ccc(C(F)(F)F)cc2)no1` [Example 17, [2-(4-{3-[4-(trifluoromethyl)phenyl]-5-isoxazolyl}butoxy)phenyl]acetic acid], the melting point lay within 122 to 123 °C.

The compound `CCOc1nn(-c2ccc(C(F)(F)F)cn2)cc1CCCOc1ccc(OC(C)(C)C(=O)O)cc1` [Example 18, 2-[4-(3-{3-ethoxy-1-[5-(trifluoromethyl)-2-pyridyl]-1H-pyrazol-4-yl}propoxy)phenoxy]-2-methylpropionic acid] registered a melting point of 91 to 92 °C.

`CCOc1cc(OCc2cn(-c3ccc(C(F)(F)F)cn3)nc2C)ccc1CCC(=O)O` [Example 19, 3-(2-ethoxy-4-{3-methyl-1-[5-(trifluoromethyl)-2-pyridyl]-1H-pyrazol-4-ylmethoxy}phenyl)propionic acid] returned a melting point of 151 to 152 °C.

`CCOc1cc(OCCCCc2cc(-c3ccc(C(F)(F)F)cc3)no2)ccc1CCC(=O)O` [Example 21, 3-[2-ethoxy-4-(4-{3-[4-(trifluoromethyl)phenyl]-5-isoxazolyl}butoxy)phenyl]propionic acid]: the melting point is 105 to 106 °C.

Compound `CC(C)c1nn(-c2ccc(C(F)(F)F)cn2)cc1CCCOc1cccc(CCC(=O)O)c1` [Example 23, 3-[3-(3-{3-isopropyl-1-[5-(trifluoromethyl)-2-pyridyl]-1H-pyrazol-4-yl}propoxy)phenyl]propionic acid] displayed a melting point of 102 to 103 °C.

For `CC(C)c1nn(-c2ccc(C(F)(F)F)cn2)cc1CCCOc1cc(CCC(=O)O)n(C)n1` [Example 25, 3-[3-(3-{3-isopropyl-1-[5-(trifluoromethyl)-2-pyridyl]-1H-pyrazol-4-yl}propoxy)-1-methyl-1H-pyrazol-5-yl]propionic acid], the melting point is 131 to 132 °C.

In turn, `CC(C)c1nn(-c2ccc(C(F)(F)F)cn2)cc1COc1cc(CCC(=O)O)n(C)n1` [Example 27, 3-(3-{3-isopropyl-1-[5-(trifluoromethyl)-2-pyridyl]-1H-pyrazol-4-ylmethoxy}-1-methyl-1H-pyrazol-5-yl)propionic acid] gave a melting point of 141 to 142 °C.

`Cc1nn(-c2ccc(C(F)(F)F)cn2)cc1COc1cccc(OC(C)(C)C(=O)O)c1` [Example 32, 2-methyl-2-(3-{3-methyl-1-[5-(trifluoromethyl)-2-pyridyl]-1H-pyrazol-4-ylmethoxy}phenoxy)propionic acid] gave a melting point of 152 to 153 °C.

`CCOc1nn(-c2ccc(C(F)(F)F)cn2)cc1CCCOc1cccc(CCC(=O)O)c1` [Example 33, 3-[3-(3-{3-ethoxy-1-[5-(trifluoromethyl)-2-pyridyl]-1H-pyrazol-4-yl}propoxy)phenyl]propionic acid]: the melting point was in the range of 88 to 89 °C.

For `Cc1nn(-c2ccc(C(F)(F)F)cn2)cc1COc1cc(/C=C/C(=O)O)n(C)n1` [Example 37, (E)-3-(1-methyl-3-{3-methyl-1-[5-(trifluoromethyl)-2-pyridyl]-1H-pyrazol-4-ylmethoxy}-1H-pyrazol-5-yl)propenoic acid], the melting point fell in the range of 208 to 209 °C.

As to `Cc1nn(-c2ccc(C(F)(F)F)cn2)cc1COc1cc(CCC(=O)O)n(C)n1` [Example 38, 3-(1-methyl-3-{3-methyl-1-[5-(trifluoromethyl)-2-pyridyl]-1H-pyrazol-4-ylmethoxy}-1H-pyrazol-5-yl)propionic acid], the melting point is 154 to 155 °C.

Compound `CCCc1nn(-c2ccc(C(F)(F)F)cn2)cc1CCCOc1cc(CCC(=O)O)n(C)n1` [Example 45, 3-[1-methyl-3-(3-{3-propyl-1-[5-(trifluoromethyl)-2-pyridyl]-1H-pyrazol-4-yl}propoxy)-1H-pyrazol-5-yl]propionic acid] returned a melting point of 80 to 81 °C.

On to `CCCc1nn(-c2ccc(C(F)(F)F)cn2)cc1CCCOc1ccccc1CC(=O)O` [Example 47, [2-(3-{3-propyl-1-[5-(trifluoromethyl)-2-pyridyl]-1H-pyrazol-4-yl}propoxy)phenyl]acetic acid], for which the melting point fell in the range of 100 to 101 °C.

For `CCOc1nn(-c2ccc(C(F)(F)F)cn2)cc1CCCOc1cc(CCC(=O)O)n(C)n1` [Example 48, 3-[3-(3-{3-ethoxy-1-[5-(trifluoromethyl)-2-pyridinyl]-1H-pyrazol-4-yl}propoxy)-1-methyl-1H-pyrazol-5-yl]propanoic acid], the melting point was 137 to 138 °C.

Compound `CC(C)c1nn(-c2ccc(C(F)(F)F)cn2)cc1CCCCOc1cc(CCC(=O)O)n(C)n1` [Example 50, 3-[3-(4-{3-isopropyl-1-[5-(trifluoromethyl)-2-pyridinyl]-1H-pyrazol-4-yl}butoxy)-1-methyl-1H-pyrazol-5-yl]propanoic acid] gave a melting point of 113 to 114 °C.

Compound `CC(C)c1nn(-c2ccc(C(F)(F)F)cn2)cc1CCCCOc1ccccc1CC(=O)O` [Example 52, [2-(4-{3-isopropyl-1-[5-(trifluoromethyl)-2-pyridinyl]-1H-pyrazol-4-yl}butoxy)phenyl]acetic acid] displayed a melting point of 125 to 126 °C.

In turn, `CC(C)c1nn(-c2ccc(C(F)(F)F)cn2)cc1CCCCOc1ccc(CC(=O)O)cc1` [Example 53, [4-(4-{3-isopropyl-1-[5-(trifluoromethyl)-2-pyridinyl]-1H-pyrazol-4-yl}butoxy)phenyl]acetic acid] gave a melting point of 130 to 131 °C.

In turn, `CC(C)c1nn(-c2ccc(C(F)(F)F)cn2)cc1CCCCOc1cccc(OC(C)(C)C(=O)O)c1` [Example 54, 2-[3-(4-{3-isopropyl-1-[5-(trifluoromethyl)-2-pyridinyl]-1H-pyrazol-4-yl}butoxy)phenoxy]-2-methylpropanoic acid] returned a melting point of 81 to 82 °C.

`CC(C)c1nn(-c2ccc(C(F)(F)F)cn2)cc1CCCCOc1ccc(CCC(=O)O)cc1` [Example 55, 3-[4-(4-{3-isopropyl-1-[5-(trifluoromethyl)-2-pyridinyl]-1H-pyrazol-4-yl}butoxy)phenyl]propanoic acid] registered a melting point of 144 to 145 °C.
